These results are taken from patent US20030229053A1, “Compounds and methods for the treatment or prevention of flavivirus infections” (Shire BioChem Inc., priority 2001, published 2003).

The structures appear in SMILES notation.

HCV NS5B RNA-dependent RNA polymerase, sequence (P26663 2420-3010 limits assumed): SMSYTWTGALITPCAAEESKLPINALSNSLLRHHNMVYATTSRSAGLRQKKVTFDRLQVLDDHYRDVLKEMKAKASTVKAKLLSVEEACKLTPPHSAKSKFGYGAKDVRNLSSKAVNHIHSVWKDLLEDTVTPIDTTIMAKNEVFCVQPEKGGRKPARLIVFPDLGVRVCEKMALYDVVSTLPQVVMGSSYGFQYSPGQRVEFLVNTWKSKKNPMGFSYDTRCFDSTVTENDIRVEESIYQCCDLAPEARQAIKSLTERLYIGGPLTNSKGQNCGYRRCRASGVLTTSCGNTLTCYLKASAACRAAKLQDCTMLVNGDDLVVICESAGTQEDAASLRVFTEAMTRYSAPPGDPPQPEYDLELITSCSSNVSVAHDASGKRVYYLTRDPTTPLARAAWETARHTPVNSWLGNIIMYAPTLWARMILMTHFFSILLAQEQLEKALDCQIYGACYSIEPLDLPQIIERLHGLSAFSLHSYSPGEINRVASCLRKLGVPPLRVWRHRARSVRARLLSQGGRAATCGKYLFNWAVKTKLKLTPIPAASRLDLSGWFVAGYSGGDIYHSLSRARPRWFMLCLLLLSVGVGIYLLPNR

For the experiment, the target named is HCV NS5B RNA-dependent RNA polymerase (Hepatitis C virus genotype 1b, UniProt P26663). As to the kind of experiment: In vitro RNA-dependent RNA polymerase assay (Assay 1), polyA/oligo dT, TCA precipitation. It is filed as biochemical. Particulars: polyA/oligo dT template/primer, 200 ng NS5B, 2 h at 22° C.; read-out: RNA pol Assay 1 IC50 (μm). The method, boiled down:
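Purified NS5B (200 ng) on annealed polyA/oligo dT15 in 20 mM Tris-HCl pH 7.5, 50 mM NaCl, 5 mM MgCl2, 1 mM DTT, 15 µM cold UTP plus [32P]-UTP, 2 h at 22°C. Product TCA-precipitated, filtered onto glass-fibre and counted by liquid scintillation.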
Broadly, the IC50 is the concentration at which inhibition is half-maximal. For `O=C(O)[C@H](Cc1ccccc1)N(Cc1cc(-c2ccc(Cl)c(Cl)c2)cs1)C(=O)c1ccc(Cl)cc1Cl` [compound #87, (2s)-2-{(2,4-Dichloro-benzoyl)-[4-(3,4-dichloro-phenyl)-thiophen-2-ylmethyl]-amino}-3-phenyl-propionic acid], the 50% inhibitory concentration (IC50) is less than 5 µM.

As for `O=C(O)[C@H](Cc1ccccc1)N(Cc1cc(-c2ccc(Cl)c(F)c2)cs1)C(=O)c1ccc(Cl)cc1Cl` [compound #88, (2s)-2-[[4-(4-Chloro-3-fluoro-phenyl)-thiophen-2-ylmethyl]-(2,4-dichloro-benzoyl)-amino]-3-phenyl-propionic acid], the IC50 is less than 5 µM.

As for `O=C(O)[C@H](Cc1ccccc1)N(Cc1cc(-c2ccc(F)c(Cl)c2)cs1)C(=O)c1ccc(Cl)cc1Cl` [compound #89, (2s)-2-[[4-(3-Chloro-4-fluoro-phenyl)-thiophen-2-ylmethyl]-(2,4-dichloro-benzoyl)-amino]-3-phenyl-propionic acid], the IC50 was less than 5 µM.

Consider `O=C(O)[C@H](Cc1ccccc1)N(Cc1cc(-c2ccc(Cl)cc2Cl)cs1)C(=O)c1ccc(Cl)cc1Cl` [compound #90, (2s) -2-{(2,4-Dichloro-benzoyl)-[4-(2,4-dichloro-phenyl)-thiophen-2-ylmethyl]-amino}-3-phenyl-propionic acid], for which the IC50 is less than 5 µM.

As to `O=C(O)[C@H](Cc1ccccc1)N(Cc1ccc(-c2ccc(F)c(Cl)c2)s1)C(=O)c1ccc(Cl)cc1Cl` [compound #91, (2s)-2-[[5-(3-Chloro-4-fluoro-phenyl)-thiophen-2-ylmethyl]-(2,4-dichloro-benzoyl)-amino]-3-phenyl-propionic acid], the IC50 is less than 5 µM.

On to `O=C(O)[C@H](Cc1ccccc1)N(Cc1ccc(-c2ccc(Cl)c(F)c2)s1)C(=O)c1ccc(Cl)cc1Cl` [compound #92, (2s)-2-[[5-(4-chloro-3-fluoro-phenyl)-thiophen-2-ylmethyl]-(2,4-dichloro-benzoyl)-amino]-3-phenyl-propionic acid], for which the IC50 was less than 5 µM.

Take `O=C(O)[C@H](Cc1ccccc1)N(Cc1ccc(-c2ccc(Cl)cc2Cl)s1)C(=O)c1ccc(Cl)cc1Cl` [compound #93, (2s)-2-{(2,4-Dichloro-benzoyl)-[5-(2,4-dichloro-phenyl)-thiophen-2-ylmethyl]-amino}-3-phenyl-propionic acid]: the 50% inhibitory concentration (IC50) is less than 5 µM.

For `O=C(O)[C@H](Cc1ccccc1)N(Cc1ccc(-c2nccs2)s1)C(=O)c1ccc(Cl)cc1Cl` [compound #94, (2s)-2-[(2,4-Dichloro-benzoyl)-(5-thiazol-2-yl-thiophen-2-ylmethyl)-amino]-3-phenyl-propionic acid], the IC50 is less than 5 µM.

On to `O=C(O)[C@H](Cc1ccccc1)N(Cc1ccc(-c2cc(F)cc(F)c2)s1)C(=O)c1ccc(Cl)cc1Cl` [compound #95, (2s)-2-{(2,4-Dichloro-benzoyl)-[5-(3,5-difluoro-phenyl)-thiophen-2-ylmethyl]-amino}-3-phenyl-propionic acid], for which the IC50 is less than 5 µM.

`COc1cccc(-c2ccc(CN(C(=O)c3ccc(Cl)cc3Cl)[C@@H](Cc3ccccc3)C(=O)O)s2)c1` [compound #96, (2s)-2-{(2,4-Dichloro-benzoyl)-[5-(3-methoxy-phenyl)-thiophen-2-ylmethyl]-amino}-3-phenyl-propionic acid]: the half-inhibitory concentration (IC50) was less than 5 µM.

As for `O=C(O)[C@H](Cc1ccccc1)N(Cc1ccc(-c2cccc(F)c2)s1)C(=O)c1ccc(Cl)cc1Cl` [compound #97, (2s)-2-{(2,4-Dichloro-benzoyl)-[5-(3-fluoro-phenyl)-thiophen-2-ylmethyl]-amino}-3-phenyl-propionic acid], the 50% inhibitory concentration (IC50) is less than 5 µM.

Consider `O=C(O)[C@H](Cc1ccccc1)N(Cc1cccs1)C(=O)c1ccc(Cl)cc1Cl` [compound #98, (2s)-2-[(2,4-Dichloro-benzoyl)-thiophen-2-ylmethyl-amino]-3-phenyl-propionic acid], for which the concentration for half-maximal inhibition (IC50) was less than 5 µM.

As to `O=C(O)[C@H](Cc1ccccc1)N(Cc1cc(Br)cs1)C(=O)c1ccc(Cl)cc1Cl` [compound #99, (2s)-2-[(4-Bromo-thiophen-2-ylmethyl)-(2,4-dichloro-benzoyl)-amino]-3-phenyl-propionic acid], the IC50 was less than 5 µM.

Turning to `O=C(O)[C@H](Cc1ccccc1)N(Cc1cnc(N2CCN(c3ccccc3)CC2)s1)C(=O)c1ccc(Cl)cc1Cl` [compound #100, (2s)-2-{(2,4-Dichloro-benzoyl)-[2-(4-phenyl-piperazin-1-yl)-thiazol-5-ylmethyl]-amino}-3-phenyl-propionic acid], the IC50 lay in the range of 5 to 20 µM.

In the case of `O=C(O)[C@H](Cc1ccccc1)N(Cc1cnc(N2CCN(Cc3ccccc3)CC2)s1)C(=O)c1ccc(Cl)cc1Cl` [compound #102, (2s)-2-[[2-(4-Benzyl-piperazin-1-yl)-thiazol-5-ylmethyl]-(2,4-dichloro-benzoyl)-amino]-3-phenyl-propionic acid], the half-maximal inhibitory concentration (IC50) was less than 5 µM.

As to `O=C(O)[C@H](Cc1ccccc1)N(Cc1cnc(N2CCCCC2)s1)C(=O)c1ccc(Cl)cc1Cl` [compound #103, (2s)-2-[(2,4-Dichloro-benzoyl)-(2-piperidin-1-yl-thiazol-5-ylmethyl)-amino]-3-phenyl-propionic acid], the 50% inhibitory concentration (IC50) was less than 5 µM.

As for `CCN(CC)c1ncc(CN(C(=O)c2ccc(Cl)cc2Cl)[C@@H](Cc2ccccc2)C(=O)O)s1` [compound #104, (2s)-2-[(2,4-Dichloro-benzoyl)-(2-diethylamino-thiazol-5-ylmethyl)-amino]-3-phenyl-propionic acid], the half-inhibitory concentration (IC50) is less than 5 µM.

In the case of `COc1cc(C)c(S(=O)(=O)N(Cc2c(C(=O)c3ccc(Cl)cc3)oc3ccccc23)[C@@H](Cc2ccccc2)C(=O)O)c(C)c1C` [compound #105, (2s)-2-[[2-(4-Chloro-benzoyl)-benzofuran-3-ylmethyl]-(4-methoxy-2,3,6-trimethyl-benzenesulfonyl)-amino]-3-phenyl-propionic acid], the IC50 lay in the range of 5 to 20 µM.

In the case of `COc1cc(C)c(S(=O)(=O)N(Cc2c(C(F)(F)F)nn(C)c2Oc2ccc(Cl)cc2Cl)[C@@H](Cc2ccccc2)C(=O)O)c(C)c1C` [compound #106, (2s)-2-[[5-(2,4-Dichloro-phenoxy)-1-methyl-3-trifluoromethyl-1h-pyrazol-4-ylmethyl]-(4-methoxy-2,3,6-trimethyl-benzenesulfonyl)-amino]-3-phenyl-propionic acid], the IC50 was in the range of 5 to 20 µM.

For `O=C(CN(C(=O)c1ccc(Cl)cc1Cl)[C@@H](Cc1ccccc1)C(=O)O)c1ccc(-c2ccc(Cl)cc2Cl)o1` [compound #107, (2s)-2-((2,4-Dichloro-benzoyl)-{2-[5-(2,4-dichloro-phenyl)-furan-2-yl]-2-oxo-ethyl}-amino)-3-phenyl-propionic acid], the IC50 is less than 5 µM.

As to `C=CCN(C(=O)c1ccc(Cl)cc1Cl)[C@@H](Cc1ccccc1)C(=O)O` [compound #109, (2s)-2-[Allyl-(2,4-dichloro-benzoyl)-amino]-3-phenyl-propionic acid], the IC50 was 5 to 20 µM.

As for `CN(C(=O)c1ccc(Cl)cc1Cl)[C@@H](Cc1ccccc1)C(=O)O` [compound #110, (2s)-2-[(2,4-Dichloro-benzoyl)-methyl-amino]-3-phenyl-propionic acid], the concentration for half-maximal inhibition (IC50) is 5 to 20 µM.

Take `C#CCN(C(=O)c1ccc(Cl)cc1Cl)[C@@H](Cc1ccccc1)C(=O)O` [compound #111, (2s)-2-[(2,4-Dichloro-benzoyl)-prop-2-ynyl-amino]-3-phenyl-propionic acid]: the 50% inhibitory concentration (IC50) is 5 to 20 µM.

With `CCCN(C(=O)c1ccc(Cl)cc1Cl)[C@@H](Cc1ccccc1)C(=O)O` [compound #112, (2s)-2-[(2,4-Dichloro-benzoyl)-propyl-amino]-3-phenyl-propionic acid], the IC50 is more than 20 µM.

Take `O=C(O)[C@H](Cc1ccccc1)N(CC#Cc1cc2ccccc2o1)C(=O)c1ccc(Cl)cc1Cl` [compound #113, (2s)-2-[(3-Benzofuran-2-yl-prop-2-ynyl)-(2,4-dichloro-benzoyl)-amino]-3-phenyl-propionic acid]: the half-maximal inhibitory concentration (IC50) is less than 5 µM.

Regarding `O=C(O)[C@H](Cc1ccccc1)N(C(=O)c1ccc(Cl)cc1Cl)c1ccc(-c2cc3ccccc3o2)cc1` [compound #114, (2s)-2-[(4-Benzofuran-2-yl-phenyl)-(2,4-dichloro-benzoyl)-amino]-3-phenyl-propionic acid], the IC50 is less than 5 µM.

For the compound `CC(C)=CCN(C(=O)c1ccc(Cl)cc1Cl)[C@@H](Cc1ccccc1)C(=O)O` [compound #115, (2s)-2-[(2,4-Dichloro-benzoyl)-(3-methyl-but-2-enyl)-amino]-3-phenyl-propionic acid], the half-inhibitory concentration (IC50) was in the range of 5 to 20 µM.

With `C=C(Br)CN(C(=O)c1ccc(Cl)cc1Cl)C(Cc1ccccc1)C(=O)O` (stereo not shown) [compound #116, 2-[(2-Bromo-allyl)-(2,4-dichloro-benzoyl)-amino]-3-phenyl-propionic acid], the IC50 fell in the range of 5 to 20 µM.

For `O=C(O)[C@H](Cc1ccccc1)N(Cc1ccc(-c2ccccc2C(F)(F)F)o1)C(=O)c1ccc(Cl)cc1Cl` [compound #120, (2s)-2-{(2,4-Dichloro-benzoyl)-[5-(2-trifluoromethyl-phenyl)-furan-2-ylmethyl]-amino}-3-phenyl-propionic acid], the half-maximal inhibitory concentration (IC50) is less than 5 µM.

Regarding `CCOC(=O)c1ccccc1-c1ccc(CN(C(=O)c2ccc(Cl)cc2Cl)[C@@H](Cc2ccccc2)C(=O)O)s1` [compound #121, (2s)-2-(5-{[(1s-1-Carboxy-2-phenyl-ethyl)-(2,4-dichloro-benzoyl)-amino]-methyl}-thiophen-2-yl)-benzoic acid ethyl ester], the half-maximal inhibitory concentration (IC50) is less than 5 µM.

Regarding `CCOC(=O)c1cccc(-c2ccc(CN(C(=O)c3ccc(Cl)cc3Cl)[C@@H](Cc3ccccc3)C(=O)O)s2)c1` [compound #122, 3-(5-{[(1s-1-Carboxy-2-phenyl-ethyl)-(2,4-dichloro-benzoyl)-amino]-methyl}-thiophen-2-yl)-benzoic acid ethyl ester], the IC50 is less than 5 µM.
